This note sets out measurements from ChEMBL document CHEMBL1135740, “Design, synthesis, and activity of a novel series of factor Xa inhibitors: optimization of arylamidine groups” (J Med Chem, 2002).

Structures are written as SMILES. Where only a bound is given, the exact number is not on record here.

Experiment [1] has as its target Prothrombin (Homo sapiens, UniProt P00734). The experiment is described as follows: Inhibitory constant against human coagulation factor II (thrombin) for selectivity within coagulation cascade.
Experiment [2] concerns the target Coagulation factor X (Homo sapiens, UniProt P00742). The experiment is described as follows: Inhibitory constant against human coagulation factor Xa (fXa).
The target of experiment [3] is T1, Serine protease 1 (Bos taurus, UniProt P00760).
T1 sequence (P00760 whole entry): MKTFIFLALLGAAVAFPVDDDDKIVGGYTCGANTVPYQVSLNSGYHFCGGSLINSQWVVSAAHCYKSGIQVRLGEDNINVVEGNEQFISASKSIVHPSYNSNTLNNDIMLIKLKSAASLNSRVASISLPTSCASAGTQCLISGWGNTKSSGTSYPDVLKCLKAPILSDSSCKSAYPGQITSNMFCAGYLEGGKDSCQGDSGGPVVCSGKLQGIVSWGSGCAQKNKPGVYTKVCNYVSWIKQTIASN
The experiment can be described thus: Inhibitory constant against bovine trypsin for general specificity against serine proteases.

Coagulation factor X, sequence (P00742 41-179 limits assumed): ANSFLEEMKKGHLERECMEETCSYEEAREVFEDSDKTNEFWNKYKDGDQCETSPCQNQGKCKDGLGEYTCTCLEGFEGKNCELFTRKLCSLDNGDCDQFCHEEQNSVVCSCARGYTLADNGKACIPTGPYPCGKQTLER
Coagulation factor X, sequence (P00742 235-488 limits assumed): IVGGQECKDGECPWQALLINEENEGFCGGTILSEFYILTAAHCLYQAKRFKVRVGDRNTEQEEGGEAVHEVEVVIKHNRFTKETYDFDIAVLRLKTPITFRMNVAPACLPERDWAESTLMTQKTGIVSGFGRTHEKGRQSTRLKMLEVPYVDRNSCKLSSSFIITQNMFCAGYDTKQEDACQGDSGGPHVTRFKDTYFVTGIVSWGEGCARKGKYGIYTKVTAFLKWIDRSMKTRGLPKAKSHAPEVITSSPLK

The term Ki denotes a dissociation constant, usually derived from enzyme kinetics or from competition with a known ligand. High values mean weaker binding, low ones tighter binding. Take `CCOC(=O)c1ccc(N(C)C)cc1Oc1nc(Oc2cccc(C(=N)N)c2)c(F)c(C)c1F`: the Ki is over 5 µM in experiment [1], over 5000 nM in experiment [2] and over 5000 nM in experiment [3].

Consider `Cc1ccc(C(=O)N(C)C)cc1Oc1nc(Oc2cccc(C(=N)N)c2)c(F)c(C)c1F`, for which, in experiment [2], the Ki was over 5000 nM.

Consider `COc1ccc(Oc2nc(Oc3cccc(C(=N)N)c3)c(F)c(C)c2F)cc1C(=O)N(C)C`, for which the inhibitory constant (Ki) is 3 µM in experiment [1], 1400 nM in experiment [2] and 450 nM in experiment [3].

As to `CN(C)C(=O)c1cccc(Oc2cc(C(=O)O)cc(Oc3cccc(C(=N)N)c3)n2)c1`, the Ki was over 5 µM in experiment [1], 263 nM in experiment [2] and 730 nM in experiment [3].

Consider `COc1cccc(Oc2nc(Oc3cccc(C(=N)N)c3)c(F)c(C)c2F)c1`, for which the figures for the Ki in experiment [1] and in experiment [2] were 1.8 µM and 1350 nM, respectively.

Turning to `Cc1c(F)c(Oc2cccc(C(=N)N)c2)nc(Oc2cccc(C(=O)O)c2)c1F`, the Ki was over 5 µM in experiment [1], 5000 nM in experiment [2] and over 5000 nM in experiment [3].

Turning to `Cc1cn(-c2cccc(Oc3cc(C(=O)O)cc(Oc4cc(C(=N)N)ccc4O)n3)c2)cn1`, the Ki in experiment [1] turned out to be 0.65 µM; in experiment [2], 13 nM; in experiment [3], 160 nM.

On to `Cc1c(F)c(Oc2cccc(C(=N)N)c2)nc(Oc2cccc(C(=O)C(C)C)c2)c1F`, for which the results for the inhibitory constant (Ki) in experiment [1], in experiment [2] and in experiment [3] were over 5 µM, 2100 nM and 3800 nM, respectively.

As to `Cc1c(F)c(Oc2cccc(N(C)C)c2)nc(Oc2cc(C(=N)N)ccc2NS(C)(=O)=O)c1F`, the Ki in experiment [1] is over 5 µM; in experiment [2] it was 5500 nM; in experiment [3], over 5000 nM.

Consider `Cc1c(F)c(Oc2cccc(C(=N)N)c2)nc(Oc2ccc(O)c(C(=O)N(C)C)c2)c1F`, for which the Ki in experiment [2] is 2000 nM. This lies in the single-digit micromolar range.

Turning to `Cc1c(F)c(Oc2cccc(NS(C)(=O)=O)c2)nc(Oc2cccc(C(=N)N)c2)c1F`, the values for the Ki in experiment [1], in experiment [2] and in experiment [3] were 4.9 µM, 3800 nM and 1900 nM, respectively.

On to `Cc1c(F)c(Oc2cccc(C(=N)N)c2)nc(Oc2cccc(C(=O)N3CCCCC3)c2)c1F`, for which the Ki in experiment [1] is over 5 µM; in experiment [2] it was 820 nM; in experiment [3] it was 3000 nM.

`COc1cc(Oc2nc(Oc3cccc(C(=O)N(C)C)c3)c(F)c(C)c2F)cc(C(=N)N)c1` came in with a Ki in experiment [2] of 2700 nM.

In the case of `Cc1c(F)c(Oc2cccc(C(=N)N)c2)nc(Oc2cc(O)cc(C(=O)N(C)C)c2)c1F`, the Ki is 0.74 µM in experiment [1], over 5000 nM in experiment [2] and 1900 nM in experiment [3].

Regarding `Cc1cn(C)c(-c2cccc(Oc3cc(C(=O)O)cc(Oc4cc(C(=N)N)ccc4O)n3)c2)n1`, the Ki is 0.88 µM in experiment [1], 8.4 nM in experiment [2] and 470 nM in experiment [3].

Consider `Cc1c(F)c(Oc2cccc(CCC(=O)N(C)C)c2)nc(Oc2cccc(C(=N)N)c2)c1F`, for which the Ki in experiment [1] was over 5 µM; in experiment [2], 1300 nM; in experiment [3], 4900 nM.

In the case of `Cc1c(F)c(Oc2cccc(C(=N)N)c2)nc(Oc2cccc(C(F)(F)F)c2)c1F`, the Ki is over 5 µM in experiment [1] and 1600 nM in experiment [2].

Regarding `Cc1c(F)c(Oc2cccc(C(=N)N)c2)nc(Oc2cccc(C(=O)N3CCN(C)CC3)c2)c1F`, the Ki in experiment [2] is over 5000 nM.

For `Cc1c(F)c(Oc2cccc(C(=N)N)c2)nc(Oc2cc(C(=O)N(C)C)cc(C(=O)N(C)C)c2)c1F`, the Ki is over 5 µM in experiment [1], 160 nM in experiment [2] and 1600 nM in experiment [3].

In the case of `COc1cc(Oc2nc(Oc3cccc(C(=O)N(C)C)c3)c(F)c(C)c2F)c(O)c(C(=N)N)c1`, the Ki was over 5 µM in experiment [1], over 5000 nM in experiment [2] and over 5000 nM in experiment [3].

With `Cc1c(F)c(Oc2cccc(C(=N)N)c2)nc(Oc2ccc(Cl)c(N(C)C)c2)c1F`, the Ki is 5.3 µM in experiment [1], 500 nM in experiment [2] and 1000 nM in experiment [3].

With `Cc1c(F)c(Oc2cccc(O)c2)nc(Oc2cccc(C(=N)N)c2)c1F`, affinity in experiment [2] was put at a Ki of 5000 nM.

As for `COc1cc(C(=O)N(C)C)cc(Oc2nc(Oc3cccc(C(=N)N)c3)c(F)c(C)c2F)c1OC`, the Ki in experiment [2] is over 5000 nM.

As for `CN(C)c1cccc(Oc2cc(C(=O)O)cc(Oc3cc(C(=N)N)ccc3O)n2)c1`, the values for the Ki in experiment [1], in experiment [2] and in experiment [3] were 0.12 µM, 12 nM and 750 nM, respectively.

As to `Cc1c(F)c(Oc2cccc(OC(C)C)c2)nc(Oc2cccc(C(=N)N)c2)c1F`, the Ki in experiment [1] is 5.3 µM; in experiment [2], 620 nM; in experiment [3], 2900 nM.

On to `Cn1ccnc1-c1cccc(Oc2cc(C(=O)O)cc(Oc3cc(C(=N)N)ccc3O)n2)c1`, for which the affinity in experiment [3] corresponds to a Ki of 650 nM.

For the compound `Cc1c(F)c(Oc2cccc(C(=O)N(C)C)c2)nc(Oc2cccc(C(=N)N)c2O)c1F`, the inhibitory constant (Ki) in experiment [1] was over 5 µM; in experiment [2] it was over 5000 nM; in experiment [3] it was over 5000 nM.

Regarding `Cc1c(F)c(Oc2cccc(C(=N)N)c2)nc(Oc2cccc(-n3ccnc3)c2)c1F`, the Ki in experiment [1] was over 5 µM; in experiment [2], 125 nM; in experiment [3], 4800 nM.

For the compound `Cc1c(F)c(Oc2cccc(C(=N)N)c2)nc(Oc2cc(C(=O)N(C)C)ccc2O)c1F`, the inhibition constant Ki in experiment [1] is over 5 µM; in experiment [2] it was over 5000 nM; in experiment [3], 3700 nM.

For `Cc1nccn1-c1cccc(Oc2cc(C(=O)O)cc(Oc3cc(C(=N)N)ccc3O)n2)c1`, the Ki in experiment [1] stood at 0.68 µM; in experiment [2], 8 nM; in experiment [3], 580 nM.

Turning to `CC(=O)c1cccc(Oc2nc(Oc3cccc(C(=N)N)c3)c(F)c(C)c2F)c1`, the Ki is over 5 µM in experiment [1] and 1400 nM in experiment [2].

For the compound `N=C(N)c1ccc(O)c(Oc2cc(C(=O)O)cc(Oc3cccc(NCCN)c3)n2)c1`, the inhibition constant Ki in experiment [1] amounted to 3.4 µM; in experiment [2], 78 nM; in experiment [3], 350 nM.

In experiment [2], `COc1ccc(C(=N)N)cc1Oc1nc(Oc2cccc(N(C)C)c2)c(F)c(C)c1F` displayed an inhibition constant (Ki) of 1400 nM.

For `Cc1c(F)c(Oc2cccc(C(=O)N(C)C)c2)nc(Oc2cc(C(=N)N)cc(O)c2O)c1F`, the inhibition constant Ki came out at 1.2 µM in experiment [1], 23 nM in experiment [2] and 1100 nM in experiment [3].

Regarding `Cc1c(F)c(Oc2cccc(NC(N)=O)c2)nc(Oc2cccc(C(=N)N)c2)c1F`, the Ki in experiment [1] was over 5 µM; in experiment [2] it was 4000 nM; in experiment [3], over 5000 nM.

As for `COc1ccc(C(=O)N(C)C)cc1Oc1nc(Oc2cccc(C(=N)N)c2)c(F)c(C)c1F`, the inhibitory constant (Ki) in experiment [1] was over 5 µM; in experiment [2], over 5000 nM; in experiment [3] it was 2100 nM.

As for `CCN(CC)c1cccc(Oc2nc(Oc3cccc(C(=N)N)c3)c(F)c(C)c2F)c1`, the Ki in experiment [1] was determined as 0.73 µM; in experiment [2], 400 nM; in experiment [3] it was 2100 nM.

With `Cc1c(F)c(Oc2cccc(N)c2)nc(Oc2cccc(C(=N)N)c2)c1F`, the Ki in experiment [1] was over 5 µM; in experiment [2], 3300 nM; in experiment [3] it was over 5000 nM.

For `Cc1ccc(N(C)C)cc1Oc1nc(Oc2cccc(C(=N)N)c2)c(F)c(C)c1F`, the Ki is over 5 µM in experiment [1], over 5000 nM in experiment [2] and over 5000 nM in experiment [3].

As to `COc1cc(C(=N)N)cc(Oc2nc(Oc3cccc(C(=O)N(C)C)c3)c(F)c(C)c2F)c1OC`, the Ki in experiment [1] is over 5 µM; in experiment [2] it was 180 nM; in experiment [3] it was over 5000 nM.

With `Cc1ccc(C(=N)N)cc1Oc1nc(Oc2cccc(N(C)C)c2)c(F)c(C)c1F`, the inhibition constant (Ki) in experiment [2] came out at 1200 nM. This counts as single-digit micromolar.

Regarding `CNC(=O)c1cccc(Oc2nc(Oc3cccc(C(=N)N)c3)c(F)c(C)c2F)c1`, affinity in experiment [2] was put at a Ki of 1200 nM.

As for `Cc1c(F)c(Oc2cccc(N(C)C)c2)nc(Oc2cc(C(=N)N)ccc2O)c1F`, the results for the Ki in experiment [1], in experiment [2] and in experiment [3] were 0.19 µM, 3 nM and 1000 nM, respectively.

`Cc1c(F)c(Oc2cccc(C(=N)N)c2)nc(Oc2cc(C(=O)N(C)C)cc(O)c2O)c1F`: the results for the Ki in experiment [1], in experiment [2] and in experiment [3] were over 5 µM, over 5000 nM and 3400 nM, respectively.

Regarding `COc1ccc(C(=N)N)c(OC)c1Oc1nc(Oc2cccc(N(C)C)c2)c(F)c(C)c1F`, the inhibition constant (Ki) in experiment [2] was over 5000 nM.

`Cc1c(F)c(Oc2cccc(F)c2)nc(Oc2cccc(C(=N)N)c2)c1F` registered an inhibition constant Ki in experiment [2] of 3200 nM.

For `Cc1c(F)c(Oc2cccc(C(=N)N)c2)nc(Oc2cccc(C(=O)Nc3ccccc3)c2)c1F`, the results for the inhibitory constant (Ki) in experiment [1] and in experiment [2] were over 5 µM and over 5000 nM, respectively.

On to `Cc1c(F)c(Oc2cccc(CCC(N)=O)c2)nc(Oc2cccc(C(=N)N)c2)c1F`, for which the inhibition constant (Ki) in experiment [2] was 700 nM; in experiment [3], over 5000 nM.

In the case of `CCN(CC)C(=O)c1cccc(Oc2nc(Oc3cccc(C(=N)N)c3)c(F)c(C)c2F)c1`, the inhibition constant (Ki) in experiment [2] amounted to 690 nM.

In experiment [2], `Cc1c(F)c(Oc2cccc(C(=N)N)c2)nc(Oc2cccc(C(O)C(N)=O)c2)c1F` (configuration not stated) registered a Ki of 370 nM.

`Cc1c(F)c(Oc2cccc(C(=N)N)c2)nc(Oc2cccc(C(=O)N(C)Cc3ccccc3)c2)c1F`: in experiment [2], affinity was put at a Ki of 2400 nM.

Regarding `CC(=O)Nc1cccc(Oc2nc(Oc3cccc(C(=N)N)c3)c(F)c(C)c2F)c1`, the Ki in experiment [2] was found to be 5800 nM.

On to `COc1ccc(C(=N)N)cc1Oc1nc(Oc2cccc(C(=O)N(C)C)c2)c(F)c(C)c1F`, for which the Ki in experiment [2] was found to be 720 nM. This Ki lies about 8.1-fold lower than the previous one.

As to `Cc1c(F)c(Oc2cccc(Cl)c2)nc(Oc2cccc(C(=N)N)c2)c1F`, the Ki in experiment [1] was over 5 µM; in experiment [2], 1700 nM.

On to `COc1c(Oc2nc(Oc3cccc(C(=N)N)c3)c(F)c(C)c2F)cccc1C(=O)N(C)C`, for which, in experiment [2], affinity was put at a Ki of 2400 nM. This counts as single-digit micromolar.

`Cc1c(F)c(Oc2cccc(C(=N)N)c2)nc(Oc2cccc(C(=O)N(C)C)c2O)c1F` gave an inhibition constant (Ki) in experiment [2] of 4500 nM.

As to `Cc1c(F)c(Oc2cccc(C(=O)N(C)C)c2)nc(Oc2cc(C(=N)N)ccc2NS(=O)(=O)C(F)(F)F)c1F`, in experiment [2], the inhibitory constant (Ki) is over 5000 nM.

`Cc1c(F)c(Oc2cccc(C(=O)N(C)C)c2)nc(Oc2cc(C(=N)N)ccc2O)c1F` gave a Ki in experiment [2] of 1.8 nM. That is a single-digit nanomolar value.

Regarding `Cc1c(F)c(Oc2cccc(CO)c2)nc(Oc2cccc(C(=N)N)c2)c1F`, the Ki in experiment [2] came to 1300 nM.
